Data reported in ChEMBL document CHEMBL5465560, “Selectivity Literature for EUbOPEN Chemogenomic Library” (2024).
One block for each compound: values may come before it.

Tests used:
Focal adhesion kinase 1 = Focal adhesion kinase 1 (Homo sapiens, UniProt Q05397); details: at 10 µM
[1] = target: T1, Serine/threonine-protein kinase Sgk2 (Homo sapiens) (UniProt Q9HBY8); assay: Selectivity interaction (Ambit KINOMEscan and KiNATiv profiling in Jurkat cells) EUB0000090b SGK2; type: cell-based; details: at 1 µM
T1 sequence (whole entry): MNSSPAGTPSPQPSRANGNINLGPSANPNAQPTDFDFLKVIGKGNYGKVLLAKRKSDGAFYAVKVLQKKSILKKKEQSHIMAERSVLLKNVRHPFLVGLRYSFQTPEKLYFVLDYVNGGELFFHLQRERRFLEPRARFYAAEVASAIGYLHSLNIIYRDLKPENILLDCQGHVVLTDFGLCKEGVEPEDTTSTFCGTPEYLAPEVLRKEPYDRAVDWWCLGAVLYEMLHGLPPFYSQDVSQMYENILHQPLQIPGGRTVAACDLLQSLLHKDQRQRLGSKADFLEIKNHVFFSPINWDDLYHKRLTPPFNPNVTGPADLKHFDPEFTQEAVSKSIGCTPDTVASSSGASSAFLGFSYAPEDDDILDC

[2] = target: Serine/threonine-protein kinase SIK2 (Homo sapiens) (UniProt Q9H0K1); assay: Selectivity interaction (Ambit KINOMEscan and KiNATiv profiling in Jurkat cells) EUB0000090b SIK2; type: cell-based; details: at 1 µM
Sequence of Serine/threonine-protein kinase SIK2 (Homo sapiens) (Q9H0K1 whole entry, looked up): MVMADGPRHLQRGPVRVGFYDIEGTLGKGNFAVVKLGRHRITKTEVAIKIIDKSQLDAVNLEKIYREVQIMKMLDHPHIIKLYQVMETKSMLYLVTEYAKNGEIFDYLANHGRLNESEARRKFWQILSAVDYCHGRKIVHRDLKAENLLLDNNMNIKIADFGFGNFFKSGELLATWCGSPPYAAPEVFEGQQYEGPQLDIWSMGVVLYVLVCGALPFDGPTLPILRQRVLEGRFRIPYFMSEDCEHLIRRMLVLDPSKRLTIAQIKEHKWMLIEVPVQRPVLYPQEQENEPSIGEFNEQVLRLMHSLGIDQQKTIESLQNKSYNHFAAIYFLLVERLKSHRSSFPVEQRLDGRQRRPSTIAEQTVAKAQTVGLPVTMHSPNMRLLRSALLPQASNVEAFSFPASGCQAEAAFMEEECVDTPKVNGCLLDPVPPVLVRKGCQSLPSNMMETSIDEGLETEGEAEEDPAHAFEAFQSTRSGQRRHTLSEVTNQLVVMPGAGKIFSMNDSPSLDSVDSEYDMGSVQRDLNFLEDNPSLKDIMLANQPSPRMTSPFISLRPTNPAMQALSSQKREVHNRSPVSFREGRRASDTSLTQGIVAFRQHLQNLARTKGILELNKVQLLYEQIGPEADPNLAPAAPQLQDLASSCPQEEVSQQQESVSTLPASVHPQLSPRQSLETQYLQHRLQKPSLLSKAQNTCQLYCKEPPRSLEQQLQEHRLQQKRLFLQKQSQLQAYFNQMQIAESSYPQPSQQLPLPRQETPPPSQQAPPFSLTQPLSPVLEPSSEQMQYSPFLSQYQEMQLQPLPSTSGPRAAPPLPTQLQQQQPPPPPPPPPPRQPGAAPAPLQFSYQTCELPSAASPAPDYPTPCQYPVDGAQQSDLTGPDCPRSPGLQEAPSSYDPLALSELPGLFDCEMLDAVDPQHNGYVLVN

[3] = target: Cyclin-dependent kinase 18 (Homo sapiens) (UniProt Q07002); assay: Selectivity interaction (ActivX KiNativ screen (kinase selectivity in THP-1 cell lysates)) EUB0000639a CDK18; type: subcellular; details: lysate, at 0.2 µM
Sequence of Cyclin-dependent kinase 18 (Homo sapiens) (Q07002 whole entry): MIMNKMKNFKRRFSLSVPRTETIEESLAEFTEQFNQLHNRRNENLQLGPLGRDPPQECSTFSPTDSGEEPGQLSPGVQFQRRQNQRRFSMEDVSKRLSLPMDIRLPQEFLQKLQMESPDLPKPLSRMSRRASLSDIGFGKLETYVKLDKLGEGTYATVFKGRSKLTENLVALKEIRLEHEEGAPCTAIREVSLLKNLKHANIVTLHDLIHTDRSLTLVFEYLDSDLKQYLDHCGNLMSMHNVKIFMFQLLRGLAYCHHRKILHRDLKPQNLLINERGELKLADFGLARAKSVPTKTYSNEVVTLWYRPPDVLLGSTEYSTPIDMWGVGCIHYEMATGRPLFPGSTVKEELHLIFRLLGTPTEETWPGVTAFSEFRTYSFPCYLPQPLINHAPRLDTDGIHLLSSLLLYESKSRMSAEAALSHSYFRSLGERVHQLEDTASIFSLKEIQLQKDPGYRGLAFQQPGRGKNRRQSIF

[4] = target: NT-3 growth factor receptor (Homo sapiens, UniProt Q16288); details: at 10 µM
Sequence of NT-3 growth factor receptor (Q16288 32-839 limits assumed): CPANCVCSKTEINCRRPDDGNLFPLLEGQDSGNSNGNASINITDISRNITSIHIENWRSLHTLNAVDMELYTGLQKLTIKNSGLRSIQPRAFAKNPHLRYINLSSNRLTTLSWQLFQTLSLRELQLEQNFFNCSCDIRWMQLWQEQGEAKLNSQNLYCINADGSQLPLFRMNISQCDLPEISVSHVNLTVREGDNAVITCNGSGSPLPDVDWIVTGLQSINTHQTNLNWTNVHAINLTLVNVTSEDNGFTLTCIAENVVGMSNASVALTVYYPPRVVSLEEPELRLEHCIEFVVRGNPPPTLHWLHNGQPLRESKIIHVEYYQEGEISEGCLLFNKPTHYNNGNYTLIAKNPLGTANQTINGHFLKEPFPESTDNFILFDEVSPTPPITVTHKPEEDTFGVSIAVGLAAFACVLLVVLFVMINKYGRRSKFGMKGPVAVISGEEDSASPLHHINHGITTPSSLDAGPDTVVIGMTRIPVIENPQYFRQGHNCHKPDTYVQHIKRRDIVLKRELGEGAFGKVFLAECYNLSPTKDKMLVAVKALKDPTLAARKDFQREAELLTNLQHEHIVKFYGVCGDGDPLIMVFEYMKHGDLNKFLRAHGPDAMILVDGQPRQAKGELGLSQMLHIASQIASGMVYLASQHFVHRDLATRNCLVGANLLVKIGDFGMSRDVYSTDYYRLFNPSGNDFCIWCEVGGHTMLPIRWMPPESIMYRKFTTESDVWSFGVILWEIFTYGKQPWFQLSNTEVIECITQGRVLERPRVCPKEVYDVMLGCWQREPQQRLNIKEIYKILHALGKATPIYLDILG

[5] = target: Ribosomal protein S6 kinase alpha-1 (Homo sapiens, UniProt Q15418); assay: Selectivity interaction (KinomeScan (DiscoverX)) EUB0001079a RPS6KA1; details: at 1 µM
[6] = target: Serine/threonine-protein kinase 32B (Homo sapiens) (UniProt Q9NY57); assay: Selectivity interaction (KinomeScan (DiscoverX)) EUB0000092b STK32B; details: at 10 µM
Sequence of Serine/threonine-protein kinase 32B (Homo sapiens) (Q9NY57 whole entry): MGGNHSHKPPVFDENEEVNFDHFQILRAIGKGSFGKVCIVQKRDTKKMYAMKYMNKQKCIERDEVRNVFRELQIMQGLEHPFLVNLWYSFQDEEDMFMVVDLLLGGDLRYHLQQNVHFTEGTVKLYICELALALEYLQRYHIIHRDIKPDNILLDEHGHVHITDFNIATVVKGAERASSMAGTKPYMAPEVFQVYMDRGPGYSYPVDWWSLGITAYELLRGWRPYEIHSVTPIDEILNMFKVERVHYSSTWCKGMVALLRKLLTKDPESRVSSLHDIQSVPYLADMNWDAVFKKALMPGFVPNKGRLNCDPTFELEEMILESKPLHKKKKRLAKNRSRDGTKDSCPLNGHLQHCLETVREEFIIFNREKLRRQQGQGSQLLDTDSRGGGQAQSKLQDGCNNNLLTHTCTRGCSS

[7] = target: Vascular endothelial growth factor receptor 1 (Homo sapiens) (UniProt P17948); assay: Selectivity interaction (Kinase panel (Eurofins)) EUB0001564a FLT1; details: at 1 µM
Sequence of Vascular endothelial growth factor receptor 1 (Homo sapiens) (P17948 whole entry, canonical isoform): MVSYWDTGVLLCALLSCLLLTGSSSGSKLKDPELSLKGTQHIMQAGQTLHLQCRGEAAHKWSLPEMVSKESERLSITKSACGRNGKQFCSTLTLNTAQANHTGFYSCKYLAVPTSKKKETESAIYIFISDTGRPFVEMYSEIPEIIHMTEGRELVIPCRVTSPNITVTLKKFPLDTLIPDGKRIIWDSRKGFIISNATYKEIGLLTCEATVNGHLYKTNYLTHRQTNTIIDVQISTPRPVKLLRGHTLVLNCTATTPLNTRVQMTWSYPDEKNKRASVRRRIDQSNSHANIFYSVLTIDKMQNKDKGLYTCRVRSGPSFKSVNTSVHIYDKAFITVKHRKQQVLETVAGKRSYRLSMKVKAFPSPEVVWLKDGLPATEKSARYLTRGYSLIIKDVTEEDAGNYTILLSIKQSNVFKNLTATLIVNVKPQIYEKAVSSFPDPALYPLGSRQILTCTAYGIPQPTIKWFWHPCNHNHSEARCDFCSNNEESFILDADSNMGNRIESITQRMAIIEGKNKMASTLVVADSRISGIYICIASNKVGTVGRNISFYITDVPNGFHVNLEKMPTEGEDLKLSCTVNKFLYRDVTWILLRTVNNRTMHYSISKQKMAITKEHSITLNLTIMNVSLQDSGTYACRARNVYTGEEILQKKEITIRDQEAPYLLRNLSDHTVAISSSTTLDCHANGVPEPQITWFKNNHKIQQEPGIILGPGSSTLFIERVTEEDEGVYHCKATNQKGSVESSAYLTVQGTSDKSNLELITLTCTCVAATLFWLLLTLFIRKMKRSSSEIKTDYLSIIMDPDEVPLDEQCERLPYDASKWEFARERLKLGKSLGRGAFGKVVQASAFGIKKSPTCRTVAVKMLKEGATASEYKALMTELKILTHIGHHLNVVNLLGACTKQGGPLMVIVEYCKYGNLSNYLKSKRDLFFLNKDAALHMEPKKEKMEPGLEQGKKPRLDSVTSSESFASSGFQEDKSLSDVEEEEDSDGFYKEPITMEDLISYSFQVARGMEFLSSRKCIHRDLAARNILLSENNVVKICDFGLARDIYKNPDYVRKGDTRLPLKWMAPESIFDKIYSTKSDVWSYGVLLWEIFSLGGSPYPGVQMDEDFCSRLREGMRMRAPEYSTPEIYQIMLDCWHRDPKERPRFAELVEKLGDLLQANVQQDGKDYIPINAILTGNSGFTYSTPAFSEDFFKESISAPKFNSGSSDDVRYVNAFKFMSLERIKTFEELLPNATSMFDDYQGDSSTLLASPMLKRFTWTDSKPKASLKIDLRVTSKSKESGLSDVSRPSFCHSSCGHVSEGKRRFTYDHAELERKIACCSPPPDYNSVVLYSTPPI

[8] = target: Casein kinase I isoform gamma-1 (Homo sapiens) (UniProt Q9HCP0); assay: Selectivity interaction (KinomeScan (DiscoverX)) EUB0000045b CSNK1G1
Sequence of Casein kinase I isoform gamma-1 (Homo sapiens) (Q9HCP0 whole entry, looked up, canonical isoform): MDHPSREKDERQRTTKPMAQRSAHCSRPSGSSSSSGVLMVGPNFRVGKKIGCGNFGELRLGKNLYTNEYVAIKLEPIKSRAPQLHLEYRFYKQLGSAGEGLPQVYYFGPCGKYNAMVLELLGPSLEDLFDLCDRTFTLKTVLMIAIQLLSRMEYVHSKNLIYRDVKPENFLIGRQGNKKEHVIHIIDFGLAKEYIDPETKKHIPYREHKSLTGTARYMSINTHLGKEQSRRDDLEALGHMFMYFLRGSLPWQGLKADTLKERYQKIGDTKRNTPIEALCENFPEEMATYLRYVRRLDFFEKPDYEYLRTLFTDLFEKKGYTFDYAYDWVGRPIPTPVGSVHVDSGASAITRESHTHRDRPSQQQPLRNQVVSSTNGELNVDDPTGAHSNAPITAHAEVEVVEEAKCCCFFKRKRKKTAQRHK

[9] = target: T2, Inhibitor of nuclear factor kappa-B kinase subunit alpha (Homo sapiens) (UniProt O15111); assay: Selectivity interaction (KinomeScan (DiscoverX)) EUB0000655a CHUK; details: at 10 µM
T2 sequence (whole entry): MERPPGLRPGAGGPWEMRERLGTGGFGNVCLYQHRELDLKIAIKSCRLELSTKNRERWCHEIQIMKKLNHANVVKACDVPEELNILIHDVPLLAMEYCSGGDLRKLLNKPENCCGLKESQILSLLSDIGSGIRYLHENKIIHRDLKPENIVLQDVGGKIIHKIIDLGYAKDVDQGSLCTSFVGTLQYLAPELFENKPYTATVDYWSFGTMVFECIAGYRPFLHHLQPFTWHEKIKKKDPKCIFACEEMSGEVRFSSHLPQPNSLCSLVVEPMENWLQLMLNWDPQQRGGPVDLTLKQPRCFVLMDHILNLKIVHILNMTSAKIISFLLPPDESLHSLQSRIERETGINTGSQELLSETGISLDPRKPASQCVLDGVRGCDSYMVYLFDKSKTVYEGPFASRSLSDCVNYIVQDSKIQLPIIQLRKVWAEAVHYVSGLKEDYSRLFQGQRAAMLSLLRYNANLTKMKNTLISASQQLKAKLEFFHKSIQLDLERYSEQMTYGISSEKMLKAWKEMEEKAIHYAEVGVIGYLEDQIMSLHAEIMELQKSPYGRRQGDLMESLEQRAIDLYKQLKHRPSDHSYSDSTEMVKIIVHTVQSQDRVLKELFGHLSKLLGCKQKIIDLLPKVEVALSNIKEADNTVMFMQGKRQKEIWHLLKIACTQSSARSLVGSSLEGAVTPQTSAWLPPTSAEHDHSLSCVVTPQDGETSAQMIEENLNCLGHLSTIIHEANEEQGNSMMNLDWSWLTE

[10] = target: Mitogen-activated protein kinase 1 (Homo sapiens, UniProt P28482); assay: Selectivity interaction (KinomeScan (DiscoverX)) EUB0001619a MAPK1; details: at 1 µM
Sequence of Mitogen-activated protein kinase 1 (P28482 whole entry): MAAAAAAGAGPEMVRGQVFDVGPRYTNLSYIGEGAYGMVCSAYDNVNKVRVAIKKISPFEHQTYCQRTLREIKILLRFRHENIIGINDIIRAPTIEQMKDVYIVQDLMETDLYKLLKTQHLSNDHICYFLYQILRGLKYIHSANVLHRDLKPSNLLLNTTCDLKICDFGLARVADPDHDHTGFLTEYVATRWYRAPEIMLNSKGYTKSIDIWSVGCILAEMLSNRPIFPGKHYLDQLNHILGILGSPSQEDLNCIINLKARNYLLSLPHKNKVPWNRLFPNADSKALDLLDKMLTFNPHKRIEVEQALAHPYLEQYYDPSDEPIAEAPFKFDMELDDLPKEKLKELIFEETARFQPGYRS

[11] = target: T3, Aurora kinase A (Homo sapiens) (UniProt O14965); assay: Selectivity interaction (SelectScreen profiling (Invitrogen)) EUB0000607a STK6; details: at 2 µM
T3 sequence (whole entry): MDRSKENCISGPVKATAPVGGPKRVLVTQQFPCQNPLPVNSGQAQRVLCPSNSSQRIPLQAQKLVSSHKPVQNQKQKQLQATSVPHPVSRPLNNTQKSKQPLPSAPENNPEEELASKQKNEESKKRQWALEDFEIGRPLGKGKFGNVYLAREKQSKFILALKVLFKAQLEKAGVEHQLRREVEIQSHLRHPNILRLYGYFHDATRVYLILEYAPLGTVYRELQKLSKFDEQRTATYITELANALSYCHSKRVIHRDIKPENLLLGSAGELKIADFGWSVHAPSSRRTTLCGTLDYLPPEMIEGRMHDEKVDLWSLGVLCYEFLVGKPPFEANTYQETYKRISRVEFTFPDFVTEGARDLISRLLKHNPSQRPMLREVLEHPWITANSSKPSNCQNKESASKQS

[12] = target: Tyrosine-protein kinase JAK1 (Homo sapiens, UniProt P23458); assay: Selectivity interaction (Kinase panel (KiNativ target engagement assay in Jurkat cells)) EUB0001635a JAK1; type: cell-based; details: Selectivity number of off-targets 0.0, Selectivity number of targets 233.0, Source Knowledge https://www.sciencedirect.com/science/article/pii/S2451945619300674?via%3Dihub, at 1 µM
[13] = target: Mitotic checkpoint serine/threonine-protein kinase BUB1 (Homo sapiens, UniProt O43683); assay: Selectivity interaction (KinomeScan (DiscoverX)) EUB0000666a BUB1; details: at 10 µM

SMILES: Cc1cc([C@@H](C)Nc2ccccc2C(=O)O)c2nc(N3CCOCC3)cc(=O)n2c1 [AZD-6482]
% of control (Focal adhesion kinase 1): 88%

SMILES: CN(C)C/C=C/C(=O)Nc1ccc(C(=O)N2CCCC(Nc3ncc(Cl)c(-c4c[nH]c5ccccc45)n3)C2)cc1 (stereo not given)
% of control [1]: 100%
% of control [2]: 93%

% of inhibition [3]: 0.4%
SMILES: CC[C@@H]1[C@H](F)C(=O)N[C@@H]1COc1nccc2cc(C(N)=O)c(OC)cc12 [ZIMLOVISERTIB]

% of control [4]: 100%
SMILES: CCN(CC)CCCCNc1ncc2cc(-c3cc(OC)cc(OC)c3)c(NC(=O)NC(C)(C)C)nc2n1

SMILES: Nc1cnc(N2CCc3cc(S(=O)(=O)Nc4c(F)cc(Cl)cc4F)cc(N4CCCC4=O)c32)nc1 [TP-020n]
% of control [5]: 93%

SMILES: CCC(=O)N1CCN(c2ccc(-n3c(=O)ccc4cnc5ccc(-c6cnc7ccccc7c6)cc5c43)cc2C(F)(F)F)CC1
% of control [6]: 87%

% of inhibition [7]: 56.8%
SMILES: CC[C@@H](Nc1c(C#N)c(-c2ccc(-c3cccc(C)c3F)cc2)nc2cnccc12)C(=O)O [BAY-091]

SMILES: C=CC(=O)Nc1cc(-n2c(=O)ccc3cnc4ccc(-c5ccc(NS(C)(=O)=O)cc5)cc4c32)ccc1C
% of control ([8]; at 1 µM): 100%
% of control ([8]; at 10 µM): 75%

SMILES: CN(C)CCOc1ccc(-c2nc(-c3ccncc3)c(-c3ccc4c(c3)CC/C4=N\O)[nH]2)cc1
% of control [9]: 92%

SMILES: N#Cc1cccc(-c2c[nH]c3ncnc(N4CCOCC4)c23)c1
% of control [10]: 98%

SMILES: CNC(=O)Nc1ccc(-c2nc(N3CC4CCC(C3)O4)c3cnn(C4CCC5(CC4)OCCO5)c3n2)cc1
% of inhibition [11]: 0%

SMILES: C=CC(=O)Nc1ccc(C(=O)Nc2[nH]nc3c2CN(C(=O)N[C@H](CN(C)C)c2ccccc2)C3(C)C)cc1
% of engagement [12]: 7.9%

SMILES: O=C(NOC[C@H](O)CO)c1ccc(F)c(F)c1Nc1ccc(I)cc1F
% of control [13]: 100%
